Measured values: patent EP0491828B1, “PEPTIDES FROM GTPase-ACTIVATING PROTEIN (GAP), DIAGNOSTIC AND THERAPEUTIC USE THEREOF” (CHIRON CORPORATION, priority 1989, dated 1999)

Columns and labels:
ras p21 protein [1] = experiment: Filter assay of GTP hydrolysis by ras p21 protein (32-P gamma-GTP), with and without GAP; assay type: biochemical; conditions: in the presence and absence of GAP; 30 minutes at room temperature
Description: The above four peptides, in the following two experiments, were tested for their abilities to inhibit the hydrolysis of GTP by ras p21 protein, in the presence and absence of GAP. The first experiment involved peptides G65, G73 and 891. It was carried out as follows: purified wild type ras p21 protein was incubated with 0.25 µM 32-P gamma-GTP in 100 mM NaPO4, pH 6.8, 0.5 mM DTT, 0.5 mM EDTA, 0.005% Na cholate, and 0.5 mg/ml BSA for 15 minutes at 30°C. The mixture was then diluted ten fold with TNM buffer (comprising 20 mM Tris-HCl, pH 7.0, 100 mM NaCl, 5 mM MgCl2). 20 µl (0.05 µg of p21) of this mixture was then combined with 2 µl of the peptide in 25 mM NaOAc, pH 5.5 and incubated for 5 minutes at room temperature. The GAP assay, was initiated by the addition of 12 ng GAP in 5 µl TNM buffer with 1 mg/ml BSA or 5 µl TNM BSA buffer for the GAP independent reactions, and the resulting mixture was incubated for 30 minutes at room temperature. The samples were then filtered through nitrocellulose membranes and washed three times with cold TNM. The filters were dried and their radioactivity counted. […] In the presence of GAP, the radioactive ras p21-GTP complex is hydrolyzed to GDP and ras p21 protein, thus reducing the resulting amount of radioactive p21-GTP bound to the filter and consequently, the radioactive counts detected. […]

ras p21 protein [2] = experiment: GDP/GTP ratio assay of p21-GTP hydrolysis (alpha-32-P-GTP, PEI cellulose chromatography), with and without GAP; assay type: biochemical; conditions: in the presence of GAP; control peptide, no concentration stated
Description: Another experiment comparing the efficacy of cGAP 13 and peptide 891 in preventing the hydrolysis of GTP was carried out as follows. The assay measured the ratio of GDP formed resulting from the hydrolysis of GTP to the remaining GTP in the assay solution. Peptides 891, cGAP 13, and G65 were separately tested in the presence and absence of GAP, Peptide G65, which served as a control, and α-32-P-GTP were used.
The assay was carried out as follows. The p21-GTP was diluted at a ratio of 1 to 10 in an assay buffer consisting of TNM at pH 7.0, 1mM DTT, and 100 µM GTP. A mixture consisting of 20 λ of p21 at 0.25 µM, and 2 λ of the peptide (in TNM, 1mM DTT and 100 µM GTP) was prepared. To this mixture was added 5 λ, i.e. 12ng of GAP diluted in TNM and 1 mg/ml BSA; for experiments without GAP, 5λ TNM/BSA were added instead. The resulting mixture was incubated for 30 minutes at room temperature. The reaction was stopped and the nucleotides were eluted from ras p21 protein with 2% SDS, 40 mM EDTA at 65°C for 5 minutes. The nucleotides were chromatographed on PEI Cellulose in 1M LiCl. GTP and GDP spots were visualized with autoradiography and identified by means of standard solutions. The individual spots from the PEI cellulose plates were scraped and the radioactivity counted.

Row | Substance | hydrolysis of GTP by ras p21 protein (radioactive counts per minute of ras p21-GTP complex on filter) (ras p21 protein [1]) | hydrolysis of p21-GTP (ratio of radioactive counts of GDP over GTP) (ras p21 protein [2])
1 | peptide G73: synthetic peptide corresponding to positions 975-990 of the full length GAP (GNVPELPDTTEHSRTD; UniProt P20936 975-990, looked up, fragment) | do not affect the hydrolysis of GTP | 
2 | peptide G65: synthetic peptide corresponding to positions 876-890 of the full length GAP; served as a control (CLQKSVQHKWPTNTT; UniProt P20936 876-890, looked up, fragment) | do not affect the hydrolysis of GTP | exhibits no inhibitory effect on p21-GTP hydrolysis
